US7776883B2, “Quinolin-4-ones as inhibitors of retroviral integrase for the treatment of HIV, AIDS and AIDS related complex (ARC)” (The United States of America as represented by the …, priority 2004, dated 2010)

| Structure (SMILES) | melting point [°C] |
| --- | --- |
| CCOC(=O)C(=O)CC(=O)c1ccc2c(c1)c(=O)c(CCC(=O)O)cn2Cc1ccc(F)cc1 | 177 to 180 |
| O=C(O)CCc1cn(Cc2ccc(F)cc2)c2ccc(C(=O)CC(=O)C(=O)O)cc2c1=O | 184 to 187 |
| CCOC(=O)C(=O)CC(=O)c1cn(Cc2ccc(F)cc2)c2c(F)cccc2c1=O | 179 to 180 |
| O=C(O)C(=O)CC(=O)c1cn(Cc2ccc(F)cc2)c2c(F)cccc2c1=O | 180 to 181 |
| CCOC(=O)C(=O)CC(=O)c1cn(Cc2ccc(F)cc2)c2c(Cl)cccc2c1=O | 164 to 165 |
| O=C(O)C(=O)CC(=O)c1cn(Cc2ccc(F)cc2)c2c(Cl)cccc2c1=O | 175 to 177 |
| CCOC(=O)C(=O)CC(=O)c1cn(Cc2cccc(OC)c2)c2ccccc2c1=O | 177 to 179 |
| COc1cccc(Cn2cc(C(=O)CC(=O)C(=O)O)c(=O)c3ccccc32)c1 | 179 to 181 |
| CCOC(=O)C(=O)CC(=O)c1cn(Cc2ccccc2OC)c2ccccc2c1=O | 154 to 156 |
| COc1ccccc1Cn1cc(C(=O)CC(=O)C(=O)O)c(=O)c2ccccc21 | 173 to 175 |
| CCOC(=O)C(=O)CC(=O)c1cn(Cc2ccc(O)cc2)c2ccccc2c1=O | 179 to 181 |
| O=C(O)C(=O)CC(=O)c1cn(Cc2ccc(O)cc2)c2ccccc2c1=O | 206 to 208 |
| CCOC(=O)C(=O)CC(=O)c1cn(Cc2ccc(F)cc2)c2cc(Cl)c(Cl)cc2c1=O | 144 to 145 |
| O=C(O)C(=O)CC(=O)c1cn(Cc2ccc(F)cc2)c2cc(Cl)c(Cl)cc2c1=O | 175 to 177 |
| O=C(O)C(=O)CC(=O)c1cn(Cc2ccc(F)cc2)c2cc(N3CCCC3)ccc2c1=O | 197 to 199 |
| CCOC(=O)C(=O)CC(=O)c1cn(Cc2ccccc2F)c2cc(Cl)ccc2c1=O | 173 to 175 |
| O=C(O)C(=O)CC(=O)c1cn(Cc2ccccc2F)c2cc(Cl)ccc2c1=O | 187 to 189 |

Continued, values first:

| melting point [°C] | Structure (SMILES) |
| --- | --- |
| 235 to 237 | CCOC(=O)C(=O)CC(=O)c1c[nH]c2ccccc2c1=O [RDS1675, 4-(1,4-dihydro-4-oxoquinolin-3-yl)-2,4-dioxobutanoic acid ethyl ester] |
| > 290 | O=C(O)C(=O)CC(=O)c1c[nH]c2ccccc2c1=O [RDS1680, 4-(1,4-dihydro-4-oxoquinolin-3-yl)-2,4-dioxobutanoic acid] |
| 153 to 154 | CCOC(=O)C(=O)CC(=O)c1cn(Cc2ccc3ccccc3c2)c2ccccc2c1=O [RDS1974, 4-[α-(2-Naphthyl)methyl-1,4-dihydro-4-oxoquinolin-3-yl]-2,4-dioxobutanoic acid ethyl ester] |
| 212 to 213 | O=C(O)C(=O)CC(=O)c1cn(Cc2ccc3ccccc3c2)c2ccccc2c1=O [RDS1975, 4-[1-(2-Naphthyl)methyl-1,4-dihydro-4-oxoquinolin-3-yl]-2,4-dioxobutanoic acid] |
| 88 to 90 | CCOC(=O)C(=O)CC(=O)c1cn(CCCCc2ccccc2)c2ccccc2c1=O [RDS1980, 4-[1-(4-Phenylbutyl)-1,4-dihydro-4-oxoquinolin-3-yl]-2,4-dioxobutanoic acid ethyl ester] |
| 136 to 138 | O=C(O)C(=O)CC(=O)c1cn(CCCCc2ccccc2)c2ccccc2c1=O [RDS1981, 4-[1-(4-Phenylbutyl)-1,4-dihydro-4-oxoquinolin-3-yl]-2,4-dioxobutanoic acid] |
| 172 to 173 | CCOC(=O)C(=O)CC(=O)c1cn(Cc2c(F)cccc2F)c2ccccc2c1=O [RDS1983, 4-[1-(2,6-Difluorophenyl)methyl-1,4-dihydro-4-oxoquinolin-3-yl]-2,4-dioxobutanoic acid ethyl ester] |
| 171 to 172 | O=C(O)C(=O)CC(=O)c1cn(Cc2c(F)cccc2F)c2ccccc2c1=O [RDS1984, 4-[1-(2,6-Difluorophenyl)methyl-1,4-dihydro-4-oxoquinolin-3-yl]-2,4-dioxobutanoic acid] |
| 174 to 175 | CCOC(=O)C(=O)CC(=O)c1cn(Cc2cccc(F)c2)c2ccccc2c1=O [RDS1986, 4-[1-(3-Fluorophenyl)methyl-1,4-dihydro-4-oxoquinolin-3-yl]-2,4-dioxobutanoic acid ethyl ester] |
| 158 to 159 | O=C(O)C(=O)CC(=O)c1cn(Cc2cccc(F)c2)c2ccccc2c1=O [RDS1987, 4-[1-(3-Fluorophenyl)methyl-1,4-dihydro-4-oxoquinolin-3-yl]-2,4-dioxobutanoic acid] |
| 152 to 153 | CCOC(=O)C(=O)CC(=O)c1cn(Cc2ccccc2F)c2ccccc2c1=O [RDS1989, 4-[1-(2-Fluorophenyl)methyl-1,4-dihydro-4-oxoquinolin-3-yl]-2,4-dioxobutanoic acid ethyl ester] |
| 172 to 174 | O=C(O)C(=O)CC(=O)c1cn(Cc2ccccc2F)c2ccccc2c1=O [RDS1990, 4-[1-(2-Fluorophenyl)methyl-1,4-dihydro-4-oxoquinolin-3-yl]-2,4-dioxobutanoic acid] |
| 141 to 142 | CCOC(=O)C(=O)CC(=O)c1cn(Cc2ccccc2)c2ccccc2c1=O [RDS1992, 4-(1-Phenylmethyl-1,4-dihydro-4-oxoquinolin-3-yl)-2,4-dioxobutanoic acid ethyl ester] |
| 141 to 142 | O=C(O)C(=O)CC(=O)c1cn(Cc2ccccc2)c2ccccc2c1=O [RDS1993, 4-(1-Phenylmethyl-1,4-dihydro-4-oxoquinolin-3-yl)-2,4-dioxobutanoic acid] |
| 237 to 238 | CCOC(=O)C(=O)CC(=O)c1cn(Cc2ccc3ccccc3n2)c2ccccc2c1=O [RDS1999, 4-[1-(2-Quinolinyl)methyl-1,4-dihydro-4-oxoquinolin-3-yl]-2,4-dioxobutanoic acid ethyl ester] |
| > 300 | O=C(O)C(=O)CC(=O)c1cn(Cc2ccc3ccccc3n2)c2ccccc2c1=O [RDS2000, 4-[1-(2-Quinolinyl)methyl-1,4-dihydro-4-oxoquinolin-3-yl]-2,4-dioxobutanoic acid] |
| 174 to 176 | CCOC(=O)C(=O)CC(=O)c1cn(Cc2ccc(Cl)cc2)c2ccccc2c1=O [RDS2011, 4-[1-(4-Chlorophenyl)methyl-1,4-dihydro-4-oxoquinolin-3-yl]-2,4-dioxobutanoic acid ethyl ester] |
| 177 to 179 | O=C(O)C(=O)CC(=O)c1cn(Cc2ccc(Cl)cc2)c2ccccc2c1=O [RDS2012, 4-[1-(4-Chlorophenyl)methyl-1,4-dihydro-4-oxoquinolin-3-yl]-2,4-dioxobutanoic acid] |
| 175 to 176 | CCOC(=O)C(=O)CC(=O)c1cn(Cc2ccc([N+](=O)[O-])cc2)c2ccccc2c1=O [RDS2017, 4-[1-(4-Nitrophenyl)methyl-1,4-dihydro-4-oxoquinolin-3-yl]-2,4-dioxobutanoic acid ethyl ester] |
| 230 to 232 | O=C(O)C(=O)CC(=O)c1cn(Cc2ccc([N+](=O)[O-])cc2)c2ccccc2c1=O [RDS2018, 4-[1-(4-Nitrophenyl)methyl-1,4-dihydro-4-oxoquinolin-3-yl]-2,4-dioxobutanoic acid] |
| 151 to 152 | CCOC(=O)C(=O)CC(=O)c1cn(Cc2ccc(F)cc2)c2cc(F)ccc2c1=O [RDS2021, 4-[1-(4-Fluorophenyl)methyl-7-fluoro-1,4-dihydro-4-oxoquinolin-3-yl]-2,4-dioxobutanoic acid ethyl ester] |
| 162 to 163 | O=C(O)C(=O)CC(=O)c1cn(Cc2ccc(F)cc2)c2cc(F)ccc2c1=O [RDS2022, 4-[1-(4-Fluorophenyl)methyl-7-fluoro-1,4-dihydro-4-oxoquinolin-3-yl]-2,4-dioxobutanoic acid] |
| 154 to 156 | CCOC(=O)C(=O)CC(=O)c1cn(Cc2ccc(OC)cc2)c2ccccc2c1=O [RDS2034, 4-[1-(4-Methoxyphenyl)methyl-1,4-dihydro-4-oxoquinolin-3-yl]-2,4-dioxobutanoic acid ethyl ester] |
| 149 to 150 | COc1ccc(Cn2cc(C(=O)CC(=O)C(=O)O)c(=O)c3ccccc32)cc1 [RDS2035, 4-[1-(4-Methoxyphenyl)methyl-1,4-dihydro-4-oxoquinolin-3-yl]-2,4-dioxobutanoic acid] |
| 152 to 153 | CCOC(=O)C(=O)CC(=O)c1cn(Cc2ccc(F)cc2)c2ccc(F)cc2c1=O [RDS2077, 4-[1-(4-Fluorophenyl)methyl-6-fluoro-1,4-dihydro-4-oxoquinolin-3-yl]-2,4-dioxobutanoic acid ethyl ester] |
| 183 to 184 | O=C(O)C(=O)CC(=O)c1cn(Cc2ccc(F)cc2)c2ccc(F)cc2c1=O [RDS2078, 4-[1-(4-Fluorophenyl)methyl-6-fluoro-1,4-dihydro-4-oxoquinolin-3-yl]-2,4-dioxobutanoic acid] |
